We go through three compounds from patent US8148099B2, “Process for determining S-nitrosothiols in biological fluids” (Universita' Di Pisa, priority 2006, dated 2012).

Series [1] has as its target T1, γ-glutamyltranspeptidase (GGT) (Homo sapiens, UniProt P19440). As to conditions: read-out: Km constant (Michaelis-Menten kinetic constant) of GGT; substance as substrate of GGT; cited from earlier work.
Series [2] deals with T1, γ-glutamyltranspeptidase (GGT). Kind of series: Decomposition kinetics of GSNO, absorbance at 334 nm (FIG. 1). It counts as biochemical. As to the method: GSNO has a absorption band at 334 nm. […] In FIG. 1 in particular, the decomposition kinetics is shown of 50 uM GSNO with GGT 525 mU/mL added at the time t=0. In ordinates the absorbance at 334 nm is shown. […]
At the addition of GGT 525 mU/mL the decrease is observed of the absorbance at 334 nm that indicates the decomposition of GSNO (curve a of FIG. 1). GSNO is quantitatively decomposed, in the adopted operative conditions, in 450 sec.

The conditions of series [3]: blood; cited from earlier work.

T1 sequence (P19440 whole entry, species assumed): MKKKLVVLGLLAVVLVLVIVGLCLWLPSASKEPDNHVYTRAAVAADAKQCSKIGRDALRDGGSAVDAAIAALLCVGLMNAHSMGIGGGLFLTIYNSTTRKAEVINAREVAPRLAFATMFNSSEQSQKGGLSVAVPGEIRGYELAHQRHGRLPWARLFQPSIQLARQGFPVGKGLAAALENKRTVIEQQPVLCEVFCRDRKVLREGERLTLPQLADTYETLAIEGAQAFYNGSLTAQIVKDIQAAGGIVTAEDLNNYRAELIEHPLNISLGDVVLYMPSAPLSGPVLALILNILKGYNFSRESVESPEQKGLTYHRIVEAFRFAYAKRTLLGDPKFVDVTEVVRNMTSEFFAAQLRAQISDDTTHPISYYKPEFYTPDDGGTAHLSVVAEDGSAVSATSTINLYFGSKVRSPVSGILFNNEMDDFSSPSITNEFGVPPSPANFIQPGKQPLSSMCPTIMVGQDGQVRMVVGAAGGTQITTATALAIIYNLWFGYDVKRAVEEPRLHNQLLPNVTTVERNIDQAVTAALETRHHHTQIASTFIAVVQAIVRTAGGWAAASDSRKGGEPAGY

For `N[C@@H](CCC(=O)N[C@@H](CS)C(=O)NCC(=O)O)C(=O)O` [GSH, reduced glutathione], the Km (in general, the substrate concentration at which the rate is half of its maximum) in series [1] was 5 to 10 µM.
With `N[C@@H](CCC(=O)N[C@@H](CSN=O)C(=O)NCC(=O)O)C(=O)O` [GSNO, S-nitrosoglutathione], in series [1], the Km is 28 µM. The “time for quantitative decomposition of GSNO” value in series [2] (50 uM GSNO, GGT 525 mU/mL, phosphate buffer 0.1 M pH 8.0, GlyGly 4.5 mM, Cu(SO4) 100 uM (curve a)) came to 450 s. Also, the “change of absorbance at 334 nm” value in series [2] (adding only 50 uM of CuSO4 (curve b)) is “no decrease is observed”.
With `[N]=O` [NO, Nitric oxide], the “half life in the hematic area” value in series [3] is recorded as “about 2 ms”.
